# Laboratory results from paper PMC3111241 (Anesthesiology, 2009).
# Tests used:
# [1] = test system: dark-adapted pupil diameter (miosis); experiment: Methadone pupil effect; format: in vivo, human; details: for AUEC0-∞ / Maximum miosis: 6.0 mg IV and 11.0 mg oral methadone HCl
# [2] = Oral; details: human, plasma, 11 mg, control
# [3] = Intravenous; details: for EH (hepatic extraction) / AUC(0-inf) / Cmax: 6.0 mg IV methadone HCl; for AUC(0-t) / AUC(0-inf) / Cmax: human, plasma, iv, 6 mg; for AUC(0-t): AUC0-96, 6.0 mg IV methadone HCl; for AUC(0-inf): AUC0-∞
# [4] = test system: CYP3A; details: in vivo; cited from earlier work
# [5] = steady-state ritonavir/indinavir
compound,measurement,setting,value
CCC(=O)C(CC(C)N(C)C)(c1ccccc1)c1ccccc1 (centres unmarked) [methadone],AUEC0-∞,[1]; acute ritonavir/indinavir,65 ± 26 mm/h
same,Maximum miosis,[1]; acute ritonavir/indinavir,3.5 ± 0.7 mm
same,AUEC0-∞,[1]; control,52 ± 24 mm/h
same,Maximum miosis,[1]; control,2.9 ± 1.0 mm
same,AUEC0-∞,[1]; [5],48 ± 25 mm/h
same,Maximum miosis,[1]; [5],3.2 ± 0.8 mm
same,"methadone miosis and concentration-effect relationships, change by acute or steady-state ritonavir/indinavir",[1]; in vivo,not significantly changed
CCC(=O)C(C[C@H](C)N(C)C)(c1ccccc1)c1ccccc1 [S-methadone],AUC(0-t),"[2]; AUC0-96, 11.0 mg oral methadone HCl",639 ± 165 ng·h/mL
same,AUC(0-inf),"[2]; AUC0-∞, 11.0 mg oral methadone HCl",710 ± 185 ng·h/mL
same,Cmax,"[2]; Cmax, 11.0 mg oral methadone HCl",23 ± 6 ng/mL
same,EH (hepatic extraction),[3]; acute ritonavir/indinavir,0.10 ± 0.04
same,EH (hepatic extraction),[3]; control,0.08 ± 0.02
same,EH (hepatic extraction),[3]; [5],0.10 ± 0.04
same,AUC(0-t),[3]; acute ritonavir/indinavir,353 ± 150 ng·h/mL
same,AUC(0-t),[3]; control,401 ± 81 ng·h/mL
same,AUC(0-t),[3]; [5],377 ± 170 ng·h/mL
same,AUC(0-inf),[3]; acute ritonavir/indinavir,390 ± 178 ng·h/mL
same,AUC(0-inf),[3]; control,436 ± 91 ng·h/mL
same,AUC(0-inf),[3]; [5],406 ± 185 ng·h/mL
same,Cmax,[3]; acute ritonavir/indinavir,69 ± 26 ng/mL
same,Cmax,[3]; control,90 ± 53 ng/mL
same,Cmax,[3]; [5],80 ± 33 ng/mL
Cc1c(O)cccc1C(=O)N[C@@H](CSc1ccccc1)[C@H](O)CN1C[C@H]2CCCC[C@H]2C[C@H]1C(=O)NC(C)(C)C [nelfinavir],inhibition of hepatic and first-pass CYP3A,[4],> 75%
